This is an account of results in US12441690B2, “Benzamide derivative compound, method for preparing same, and pharmaceutical composition for treating or preventing inflammatory disease containing same as active ingredient” (SEOUL NATIONAL UNIVERSITY R&DB FOUNDATION, priority 2017, dated 2025).

The experiment deals with PDE4B enzyme (Homo sapiens (Human), UniProt Q07343). Briefly: PDE4B inhibitory activity, LANCE Ultra cAMP assay. It counts as biochemical. The note with it: 50% inhibition from cAMP to 5′AMP. Here is the method:
In order to evaluate the PDE4B inhibitory activity of the compounds according to the present invention, the following experiment was performed using LANCE Ultra cAMP assay kit (Perkin Elmer, U.S.A).
Particularly, 5 μl of the 3 nM cAMP dissolved reaction buffer was added to each reaction well (LANCE Ultra cAMP assay kit). Then, each example compound dilution solution (2.5 μl) and PDE4B enzyme (0.1 ng/well, BPS Biosciences, San Diego, U.S.A) were added to the well, followed by incubation for 1 hour at 37° C. Next, 5 μl of ULight-anti-cAMP detection reactant supplemented with 5 μl of Eu-cAMP tracer and 1 mM IBMX (LANCE Ultra cAMP assay kit) was added thereto, followed by incubation for 1 hour at 37° C.
In general terms: TR-FRET usually uses a lanthanide donor and a delayed reading to cut background.

For orientation: IC50 means the point on the concentration scale where inhibition reaches its midpoint.

Chain of PDE4B enzyme (Q07343 whole entry): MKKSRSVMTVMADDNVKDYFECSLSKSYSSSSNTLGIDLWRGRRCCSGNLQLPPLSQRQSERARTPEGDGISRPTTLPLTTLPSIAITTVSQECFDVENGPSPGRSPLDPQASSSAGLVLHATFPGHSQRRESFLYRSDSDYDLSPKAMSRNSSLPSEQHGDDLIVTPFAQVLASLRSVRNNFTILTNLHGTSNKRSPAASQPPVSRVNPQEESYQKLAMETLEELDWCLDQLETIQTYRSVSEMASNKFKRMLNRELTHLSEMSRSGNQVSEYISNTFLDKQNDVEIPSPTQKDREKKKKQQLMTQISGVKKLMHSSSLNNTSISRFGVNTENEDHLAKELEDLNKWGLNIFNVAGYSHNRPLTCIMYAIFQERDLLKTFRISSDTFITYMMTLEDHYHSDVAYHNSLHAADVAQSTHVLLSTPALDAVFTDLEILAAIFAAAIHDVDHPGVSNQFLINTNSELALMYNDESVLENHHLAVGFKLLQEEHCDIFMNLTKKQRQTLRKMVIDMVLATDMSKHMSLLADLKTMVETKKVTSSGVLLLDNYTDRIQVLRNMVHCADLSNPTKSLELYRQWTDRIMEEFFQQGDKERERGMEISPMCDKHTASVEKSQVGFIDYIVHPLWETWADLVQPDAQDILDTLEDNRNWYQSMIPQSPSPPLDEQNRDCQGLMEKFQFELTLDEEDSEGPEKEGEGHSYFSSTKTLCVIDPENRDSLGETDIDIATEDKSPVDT

Compound `COc1ccc(-c2nc(SC)ncc2C(=O)Nc2c(Cl)cncc2Cl)cc1OC` [Example 2, N-(3,5-dichloropyridine-4-yl)-4-(3,4-dimethoxyphenyl)-2-(methylthio)pyrimidine-5-carboxamide] showed an IC50 of 178 nM.

`COc1ccc(-c2nc(SC)ncc2C(=O)Nc2ccncc2)cc1OC` [Example 3, 4-(3,4-dimethoxyphenyl)-2-(methylthio)-N-(pyridine-4-yl)pyrimidine-5-carboxamide] displayed an IC50 of 95 nM. The figure for `CSc1ncc(C(=O)NCCc2c[nH]c3ccccc23)c(N2CCOCC2)n1` [Example 4, N-(2-(1H-indole-3-yl)ethyl)-2-(methylthio)-4-morpholinopyrimidine-5-carboxamide] is 166 nM. With `COc1ccc(-c2nc(SC)ncc2C(=O)NC2CCOCC2)cc1OC` [Example 5, 4-(3,4-dimethoxyphenyl)-2-(methylthio)-N-(tetrahydro-2H-pyran-4-yl)pyrimidine-5-carboxamide], the IC50 stood at 239 nM.

As for `CSc1ncc(C(=O)Nc2ccc(F)cc2)c(N2CCOCC2)n1` [Example 6, N-(4-fluorophenyl)-2-(methylthio)-4-morpholinopyrimidine-5-carboxamide], the midpoint of inhibition, the IC50, lay at 367 nM. The figure for `COc1ccc(CCNC(=O)c2cnc(SC)nc2N2CCOCC2)cc1OC` [Example 7, N-(3,4-dimethoxyphenetyl)-2-(methylthio)-4-morpholinopyrimidine-5-carboxamide] is < 10 nM. As for `COc1ccc(CNC(=O)c2cnc(C(F)(F)F)nc2N2CCOCC2)c(OC)c1` [Example 8, N-(2,4-dimethoxybenzyl)-4-morpholino-2-(trifluoromethyl)pyrimidine-5-carboxamide], half-maximal inhibition (IC50) was put at 74 nM. The same measure for `COc1ccc(CNC(=O)c2cnc(SC)nc2N2CCOCC2)c(OC)c1` [Example 9, N-(2,4-dimethoxybenzyl)-2-(methylthio)-4-morpholinopyrimidine-5-carboxamide]: 377 nM; for `CSc1ncc(C(=O)Nc2c(Cl)cncc2Cl)c(N2CCOCC2)n1` [Example 10, N-(3,5-dichloropyridine-4-yl)-2-(methylthio)-4-morpholinopyrimidine-5-carboxamide]: 73 nM. As to `COc1ccc(NC(=O)c2cnc(C(F)(F)F)nc2N2CCOCC2)cc1OC` [Example 11, N-(3,4-dimethoxyphenyl)-4-morpholino-2-(trifluoromethyl)pyrimidine-5-carboxamide], the IC50 worked out at 67 nM.

For `COc1ccc(-c2nc(C(F)(F)F)ncc2C(=O)NC2CCOCC2)cc1OC` [Example 12, 4-(3,4-dimethoxyphenyl)-N-(tetrahydro-2H-pyran-4-yl)-2-(trifluoromethyl)pyrimidine-5-carboxamide], the IC50 turned out to be 266 nM. In turn, `CCN(CC)C(=O)c1cnc(C(F)(F)F)nc1-c1ccc(OC)c(OC)c1` [Example 13, 4-(3,4-dimethoxyphenyl)-N,N-diethyl-2-(trifluoromethyl)pyrimidine-5-carboxamide] returned an IC50 of 833 nM. `COc1ccc(-c2nc(S(C)(=O)=O)ncc2C(=O)NC2CCOCC2)cc1OC` [Example 14, 4-(3,4-dimethoxyphenyl)-2-(methylsulfonyl)-N-(tetrahydro-2H-pyran-4-yl)pyrimidine-5-carboxamide]: the half-inhibitory concentration (IC50) was 506 nM.

For the compound `COc1ccc(-c2nc(C(F)(F)F)ncc2C(=O)NC2CC2)cc1OC` [Example 15, N-cyclopropyl-4-(3,4-dimethoxyphenyl)-2-(trifluoromethyl)pyrimidine-5-carboxamide], inhibition was half-maximal at 252 nM (IC50).

The compound `COc1ccc(-c2nc(C(F)(F)F)ncc2C(=O)Nc2c(Cl)cncc2Cl)cc1OC` [Example 16, N-(3,5-dichloropyridine-4-yl)-4-(3,4-dimethoxyphenyl)-2-(trifluoromethyl)pyrimidine-5-carboxamide] had an IC50 of 44 nM. `COc1ccc(-c2nc(SC)ncc2C(=O)NC2CC2)cc1OC` [Example 18, N-cyclopropyl-4-(3,4-dimethoxyphenyl)-2-(methylthio)pyrimidine-5-carboxamide] gave an IC50 of 477 nM. The compound `COc1ccc(-c2nc(S(C)(=O)=O)ncc2C(=O)NC2CC2)cc1OC` [Example 19, N-cyclopropyl-4-(3,4-dimethoxyphenyl)-2-(methylsulfonyl)pyrimidine-5-carboxamide] showed an IC50 of 189 nM. The figure for `COc1ccc(-c2nc(SC)ncc2C(=O)Nc2cc(C(C)C)c(N)c(C(C)C)c2)cc1OC` [Example 20, N-(4-amino-3,5-diisopropylphenyl)-4-(3,4-dimethoxyphenyl)-2-(methylthio)pyrimidine-5-carboxamide] is 745 nM; for `COc1ccc(-c2nc(C(F)(F)F)ncc2C(=O)Nc2cc(C(C)C)c(N)c(C(C)C)c2)cc1OC` [Example 21, N-(4-amino-3,5-diisopropylphenyl)-4-(3,4-dimethoxyphenyl)-2-(trifluoromethyl)pyrimidine-5-carboxamide] it is 222 nM; for `COc1ccc(NC(=O)c2cnc(SC)nc2N2CCN(CCO)CC2)cc1OC` [Example 22, N-(3,4-dimethoxyphenyl)-4-(4-(2-hydroxyethyl)piperazine-1-yl)-2-(methylthio)pyrimidine-5-carboxamide] it is 881 nM. The same measure for `O=C(NCCc1c[nH]c2ccccc12)c1cnc(C(F)(F)F)nc1N1CCOCC1` [Example 24, N-(2-(1H-indole-3-yl)ethyl)-4-morpholino-2-(trifluoromethyl)pyrimidine-5-carboxamide]: 469 nM; for `COc1ccc(-c2nc(C(F)(F)F)ncc2C(=O)NCCN2CCOCC2)cc1OC` [Example 26, 4-(3,4-dimethoxyphenyl)-N-(2-morpholinoethyl)-2-(trifluoromethyl)pyrimidine-5-carboxamide]: 195 nM.

As to `COc1ccc(-c2nc(SC)ncc2C(=O)NCCN2CCOCC2)cc1OC` [Example 27, 4-(3,4-dimethoxyphenyl)-2-(methylthio)-N-(2-morpholinoethyl)pyrimidine-5-carboxamide], the IC50 was 860 nM. `COc1ccc(NC(=O)c2cnc(SC)nc2-c2ccc(OC)c(OC)c2)cc1OC` [Example 29, N,4-bis(3,4-dimethoxyphenyl)-2-(methylthio)pyrimidine-5-carboxamide] gave an IC50 of 634 nM.

In turn, `COc1ccc(NC(=O)c2cnc(C(F)(F)F)nc2-c2ccc(OC)c(OC)c2)cc1OC` [Example 30, N,4-bis(3,4-dimethoxyphenyl)-2-(trifluoromethyl)pyrimidine-5-carboxamide] returned an IC50 of 61 nM.
